Data as given in patent EP0559845B1, “Use of compounds in preventing endotoxin shock” (priority 1991, dated 1992).

What was measured:
[1] = tested on: mice (strain C57BL/10); assay: Protection of mice against lethal endotoxemia; assay type: in vivo; settings: for mice survived: intravenous
Description: (§1) Eight week old mice (strain C57BL/10) were allowed to rest for at least 7 days following their arrival and were sexually segregated and housed at 5 per cage with food and water ad libitum. Intravenous injection of a GTPase inhibiting compound (lipid X dissolved in saline as described above) and/or lipopolysaccharide was achieved by the retroorbital sinus route using a 27 gauge needle. No more than 0.1 ml of fluid was injected at a time. Just prior to injection, the mice were lightly anesthetized with ether. Following the injection, mice were observed every 0.5-6 hours and the time of death was recorded. In a few experiments, mice were injected by the intraperitoneal route with solutions of lipid X and/or lipopolysaccharide similar to those described above.
The lethal dose of E. coli endotoxin was determined both for the intravenous and for the intraperitoneal challenge. The lethal dose that killed 100% of the mice (LD100) was 250 µg intravenously and 500 µg intraperi toneally. (It is important to standardize each lot of endotoxin with each lot of mice.) To determine the approximate dose of lipid X needed to protect against a lethal challenge of endotoxin, mice were pretreated with lipid X intraperitoneally 2 hours before challenge with 1500 µg of endotoxin, which is 3 times the LD100 dose. Pretreatment of mice with lipid X appeared to prolong the time to death four-fold (from about 20 hours to 80 hours).
Because both lipid X and lipopolysaccharide (LPS) were given intraperitoneally in these preliminary experiments, the possibility existed of slow or variable rates of absorption. Consequently, an intravenous challenge route was selected to test for protective efficiency. Mice were given 750 µg of lipid X from 24 hours prior to 6 hours after endotoxin challenge with 1-2 LD100 doses. Forty-one percent of mice receiving 500 µg lipid X from 6 hours prior to endotoxin challenge through 1 hour after LPS challenge survived. When a lower endotoxin challenge dose (250 µg) was used, 81% of the mice survived if treated with lipid X from 1 hour prior to through 4 hours post LPS challenge. […] Perhaps this is due to the fact that those animals were anesthetized twice in a short period and received the toxic endotoxin challenge before receiving lipid X. The reversal of the lethal toxicity of endotoxin at times as late as 4 hours after endotoxin challenge is especially striking. […] By 4 hours after injection of the 250 µg of intravenous lipopolysaccharide, the mice had stopped normal behavior, i.e. nesting had stopped, decreased spontaneous activity occurred, and the animals were shaking.

[2] = tested on: GTPase activity in membranes isolated from a macrophage (RAW 264.7) cell line; assay: GTPase assay: basal or agonist-stimulated GTPase activity in macrophage membranes; assay type: biochemical; settings: no LPS
Description: We sought to directly evaluate the influence of LPS on possible G-protein function by examining agonist-enhanced GTPase activity, which is a hallmark of G-protein action. Moreover, because macrophages are one of the key cell types in the release of toxic mediators following an LPS challenge, we first assessed the capacity of LPS to influence GTPase activity in membranes isolated from RAW 264.7 cells, which is a highly LPS-responsive macrophage cell line. In these studies, GTPase activity was measured using a standard assay. The activity was determined using 2 µM γ-^32P-GTP in the presence of 0.1 mM ATP and 0.2 mM of the non-hydrolyzable ATP analog, AMPPNP, in order to minimize nonspecific nucleotidase activity in the membrane preparations. In the preferred practice of the present invention, the ability of a candidate compound to inhibit LPS-induced GTPase is assessed by measuring the release of ^32Pi from γ-^32P-GTP.
We first determined the optimal LPS concentration for GTPase stimulation. In all experiments, the LPS dose response curve was quite steep, and with the highest activity occurring around 200-300 µg LPS/ml.
Under these conditions, GTPase activation was evident at 100 µg LPS/ml (roughly 6 µM assuming an average MW ∼ 17,000 kDa), and the maximal effect was seen by 300 µg/ml LPS. (2) To show adenosine mucleotide synergism with LPS-stimulated GTPase activity, either 10µM ATP or 30µM ADP replace the 0.1 mM ATP and 0.2 mM AMPPNP of the standard assay described by Cassel et al. and Neer et al.
In the preferred assay, a candidate compound (.001 - 1000 µM) is dissolved or suspended in 100µl of a reaction buffer containing 20mM HEPES (pH 7.4), 0.01mM ATP or ADP, membranes isolated from RAW 264.7 cells, 2µM γ-^32P-GTP (3-9 X 10cpm/pmol), 5mM MgCl2, 18µM LPS (based on an estimated MW of 17,000 kDa for E. coli 0111:B4 endotoxin), and 250 mM ammonium sulfate. The reaction is initiated by the addition of the γ-^32P-GTP and the mixture incubated at 30-37°C for 15 to 30 minutes. The reaction is terminated by the addition of 500µl of 5% trichloroacetic acid and 500µl of 0.1gm/ml acid-activated charcoal in 5% trichloroacetic acid. The samples are centrifuged at 14,000xg for 10 minutes, and a 550µl aliquot of the supernatant is removed for scintillation counting. The supernatant will contain the released ^32Pi. The extent of GTPase inhibition is measured by the decrease in the amount of ^32Pi released from γ-^32P-GTP. Appropriate controls include mixtures with one of the following omitted: (i) test compound, (ii) endotoxin, and (iii) ATP, ADP or AMPPNP.
The macrophage-like cell line RAW 264.7 is cultured as described using RPMI 1640 medium supplemented with 10% fetal calf serum (FCS) containing < 0.1 ng/ml LPS. The membranes are resuspended in 20 mM HEPES (pH 7.4), 1 mM dithiothreitol, 1 mM EDTA and 10 µg leupeptin/ml. Aliquots are stored at -70°C until assayed.
To assess whether the LPS/ATP-enhanced GTPase is a "low Km" form, which would be expected for a variety of large and small MW G-proteins, as well as for various GAP and ARF-like proteins, as opposed to a "high Km" form, such as a phosphatase, we assayed the GTPase activity using 0.2 and 50 µM GTP essentially as described previously. […] The LPS and ATP stimulated a low Km GTPase activity by ∼30% and 70%, respectively, when added individually. This stimulation of low Km activity was slightly greater than that estimated using the standard assay conditions. […] The LPS stimulation of GTPase activity is enhanced by adenine nucleotides.

[3] = tested on: C57BL/10 mice; assay: Toxicity of lipid X in mice; assay type: in vivo
Description: as §1
To test for the toxicity of lipid X in mice, C57BL/10 mice were challenged with 750, 2000 or 5000 µg of lipid X intraperitoneally (12 mice) or with 750, 1500 or 3000 µg intravenously (7 mice). […] Consequently, lipid X appeared to be nontoxic in mice, as in sheep.

Compound: CCCCCCCCCCC[C@@H](O)CC(=O)N[C@H]1[C@@H](OP(=O)(O)O)O[C@H](CO)[C@@H](O)[C@@H]1OC(=O)C[C@H](O)CCCCCCCCCCC [lipid X]
- mice survived ([1]; endotoxin challenge 250 µg, lipid X from 1 hour prior through 4 hours post LPS challenge): 81%
- mice survived ([1]; printed '500 µg lipid X', from 6 hours prior to endotoxin challenge through 1 hour after): Forty-one
- prevention of lethal endotoxicity on late treatment ([1]; lipid X given 6 hours after lipopolysaccharide): appears to prevent lethal endotoxicity
- prolongation of the time to death ([1]; lipid X intraperitoneally 2 hours before 1500 µg endotoxin): four-fold
- time to death ([1]; lipid X intraperitoneally 2 hours before 1500 µg endotoxin (3 times LD100), control about 20 hours): ~80 h
- effect on basal GTPase activity [2]: slightly reducing basal activity
- survival after lipid X alone ([3]; 750, 1500 or 3000 µg intravenously (7 mice)): All these mice lived
- survival after lipid X alone ([3]; 750, 2000 or 5000 µg intraperitoneally (12 mice)): All these mice lived
